Measurements from patent US20220281848A1, “PYRAZOLE-SUBSTITUTED PYRROLIDINONES AS HERBICIDES” (FMC Corporation, priority 2019, published 2022).

System: plants
Test: Test D pre-emergence, other plants of Tables D1 and D3
Assay type: in vivo
Conditions: for damage to plant, ALOMY / damage to plant, AVEFA / damage to plant, BEAVA / damage to plant, BROTE / damage to plant, BRSNN / damage to plant, HORVW / damage to plant, SINAR: pre-emergence, 100=total damage, 0=no damage; for ABUTH damage to plant (100=total damage; 0=no damage) / AMARE damage to plant (100=total damage; 0=no damage) / DIGSA damage to plant (100=total damage; 0=no damage) / ECHCG damage to plant (100=total damage; 0=no damage) / ORYSA damage to plant (100=total damage; 0=no damage) / PANMI damage to plant (100=total damage; 0=no damage) / SETFA damage to plant (100=total damage; 0=no damage): preemergent
Protocol: A formulation containing 50 g/L of the test chemical was prepared by dissolving the active ingredient in a mixture of organic solvents and emulsifier, details of which are provided in the table. This formulation was then mixed with a small, variable amount of acetone to aid dissolution, before addition of a 0.2% v/v aqueous solution of an adjuvant, as the aqueous diluent, to form an aqueous spray solution which contains a predetermined concentration of the active ingredient.
This aqueous spray solution was then sprayed onto plants including maize and wheat that had been seed treated with a herbicide safener, after one day's cultivation (for pre-emergence) or after about 12 days' cultivation (for post-emergence). The plants were grown from seeds sown in standard soil, placed in a glasshouse under controlled conditions (at 24/18° C. or 20/16° C., day/night; 16 h light; 65% humidity). After spray application the plants were then grown in a glasshouse under the same conditions and watered twice daily. After 15 d for post-emergence and 20 DAA for pre-emergence the test was evaluated (100=total damage to plant; 0=no damage to plant).

CN1CC(c2cc(C(F)(F)F)n(C)n2)C(C(=O)Nc2cccc(F)n2)C1=O (racemic) [Compound 24]
damage to plant, ALOMY (rate 15, 20 DAA): 0 | damage to plant, AVEFA (rate 15, 20 DAA): 0 | damage to plant, BEAVA (rate 15, 20 DAA): 0 | damage to plant, BROTE (rate 15, 20 DAA): 0 | damage to plant, BRSNN (rate 15, 20 DAA): 0 | damage to plant, HORVW (rate 15, 20 DAA): 0 | damage to plant, SINAR (rate 15, 20 DAA): 0 | damage to plant, ALOMY (rate 30, 20 DAA): 0 | damage to plant, AVEFA (rate 30, 20 DAA): 0 | damage to plant, BEAVA (rate 30, 20 DAA): 0 | damage to plant, BROTE (rate 30, 20 DAA): 0 | damage to plant, BRSNN (rate 30, 20 DAA): 0 | damage to plant, HORVW (rate 30, 20 DAA): 0 | damage to plant, SINAR (rate 30, 20 DAA): 0 | damage to plant, ALOMY (rate 60, 20 DAA): 0 | damage to plant, AVEFA (rate 60, 20 DAA): 0 | damage to plant, BEAVA (rate 60, 20 DAA): 0 | damage to plant, BROTE (rate 60, 20 DAA): 0 | damage to plant, BRSNN (rate 60, 20 DAA): 0 | damage to plant, HORVW (rate 60, 20 DAA): 0 | damage to plant, SINAR (rate 60, 20 DAA): 0 | damage to plant, ALOMY (rate 130, 20 DAA): 0 | damage to plant, AVEFA (rate 130, 20 DAA): 0 | damage to plant, BEAVA (rate 130, 20 DAA): 0 | damage to plant, BROTE (rate 130, 20 DAA): 0 | damage to plant, BRSNN (rate 130, 20 DAA): 0 | damage to plant, HORVW (rate 130, 20 DAA): 0 | damage to plant, SINAR (rate 130, 20 DAA): 0 | damage to plant, ALOMY (rate 250, 20 DAA): 0 | damage to plant, AVEFA (rate 250, 20 DAA): 0 | damage to plant, BEAVA (rate 250, 20 DAA): 0 | damage to plant, BROTE (rate 250, 20 DAA): 0 | damage to plant, BRSNN (rate 250, 20 DAA): 0 | damage to plant, HORVW (rate 250, 20 DAA): 0 | damage to plant, SINAR (rate 250, 20 DAA): 0 | damage to plant, ALOMY (rate 500, 20 DAA): 10 | damage to plant, AVEFA (rate 500, 20 DAA): 10 | damage to plant, BEAVA (rate 500, 20 DAA): 0 | damage to plant, BROTE (rate 500, 20 DAA): 0 | damage to plant, BRSNN (rate 500, 20 DAA): 0 | damage to plant, HORVW (rate 500, 20 DAA): 20 | damage to plant, SINAR (rate 500, 20 DAA): 0 | ABUTH damage to plant (100=total damage; 0=no damage) (Rates 15, 20 DAA): 0 | AMARE damage to plant (100=total damage; 0=no damage) (Rates 15, 20 DAA): 0 | DIGSA damage to plant (100=total damage; 0=no damage) (Rates 15, 20 DAA): 0 | ECHCG damage to plant (100=total damage; 0=no damage) (Rates 15, 20 DAA): 0 | ORYSA damage to plant (100=total damage; 0=no damage) (Rates 15, 20 DAA): 0 | PANMI damage to plant (100=total damage; 0=no damage) (Rates 15, 20 DAA): 0 | SETFA damage to plant (100=total damage; 0=no damage) (Rates 15, 20 DAA): 0 | ABUTH damage to plant (100=total damage; 0=no damage) (Rates 30, 20 DAA): 0 | AMARE damage to plant (100=total damage; 0=no damage) (Rates 30, 20 DAA): 0 | DIGSA damage to plant (100=total damage; 0=no damage) (Rates 30, 20 DAA): 30 | ECHCG damage to plant (100=total damage; 0=no damage) (Rates 30, 20 DAA): 10 | ORYSA damage to plant (100=total damage; 0=no damage) (Rates 30, 20 DAA): 0 | PANMI damage to plant (100=total damage; 0=no damage) (Rates 30, 20 DAA): 0 | SETFA damage to plant (100=total damage; 0=no damage) (Rates 30, 20 DAA): 0 | ABUTH damage to plant (100=total damage; 0=no damage) (Rates 60, 20 DAA): 0 | AMARE damage to plant (100=total damage; 0=no damage) (Rates 60, 20 DAA): 0 | DIGSA damage to plant (100=total damage; 0=no damage) (Rates 60, 20 DAA): 80 | ECHCG damage to plant (100=total damage; 0=no damage) (Rates 60, 20 DAA): 50 | ORYSA damage to plant (100=total damage; 0=no damage) (Rates 60, 20 DAA): 0 | PANMI damage to plant (100=total damage; 0=no damage) (Rates 60, 20 DAA): 0 | SETFA damage to plant (100=total damage; 0=no damage) (Rates 60, 20 DAA): 0 | ABUTH damage to plant (100=total damage; 0=no damage) (Rates 130, 20 DAA): 0 | AMARE damage to plant (100=total damage; 0=no damage) (Rates 130, 20 DAA): 0 | DIGSA damage to plant (100=total damage; 0=no damage) (Rates 130, 20 DAA): 90 | ECHCG damage to plant (100=total damage; 0=no damage) (Rates 130, 20 DAA): 70 | ORYSA damage to plant (100=total damage; 0=no damage) (Rates 130, 20 DAA): 0 | PANMI damage to plant (100=total damage; 0=no damage) (Rates 130, 20 DAA): 0 | SETFA damage to plant (100=total damage; 0=no damage) (Rates 130, 20 DAA): 30 | ABUTH damage to plant (100=total damage; 0=no damage) (Rates 250, 20 DAA): 20 | AMARE damage to plant (100=total damage; 0=no damage) (Rates 250, 20 DAA): 0 | DIGSA damage to plant (100=total damage; 0=no damage) (Rates 250, 20 DAA): 90 | ECHCG damage to plant (100=total damage; 0=no damage) (Rates 250, 20 DAA): 90 | ORYSA damage to plant (100=total damage; 0=no damage) (Rates 250, 20 DAA): 0 | PANMI damage to plant (100=total damage; 0=no damage) (Rates 250, 20 DAA): 0 | SETFA damage to plant (100=total damage; 0=no damage) (Rates 250, 20 DAA): 60 | ABUTH damage to plant (100=total damage; 0=no damage) (Rates 500, 20 DAA): 20 | AMARE damage to plant (100=total damage; 0=no damage) (Rates 500, 20 DAA): 10 | DIGSA damage to plant (100=total damage; 0=no damage) (Rates 500, 20 DAA): 90 | ECHCG damage to plant (100=total damage; 0=no damage) (Rates 500, 20 DAA): 90 | ORYSA damage to plant (100=total damage; 0=no damage) (Rates 500, 20 DAA): 0 | PANMI damage to plant (100=total damage; 0=no damage) (Rates 500, 20 DAA): 0 | SETFA damage to plant (100=total damage; 0=no damage) (Rates 500, 20 DAA): 90
